Consider 8 molecules from patent US7045512B2 (priority 2003, dated 2006).

SMILES strings stand for the structures.

One experiment has as its system Cucumber Powdery Mildew. Description: Soil drench for the control of cucumber powdery mildew. Format: in vivo. To be noted: 300 ppm, greenhouse soil drench. Here is the method: (§1) Soil Drench for the Control of Barley or Cucumber Powdery Mildew
(§2) Technical grade material formulated as described for foliar sprays is dispensed at defined rates (ml/cm^3) into the soil in the pots for barley and cucumber in the stages as described for the foliar sprays. Treated plants are inoculated, within 24 hours with the respective powdery mildew species as described for the foliar spray tests. Inoculated plants are kept in the greenhouse for 6–8 days for disease development. Disease severity is examined and the % control is calculated as [% disease on untreated plants−% disease on treated plants]/% disease on untreated plants. The results of these tests are shown in Table 2B below under the heading “Drench Application—Barley Powdery Mildew” and “Drench Application—Cucumber Powdery Mildew”.

The test system of experiment [1] is Erysiyphe graminis f.sp. hordei. Description: Foliar spray for the control of barley powdery mildew. It is filed as in vivo. To be noted: greenhouse foliar spray, barley plants; for pest or weed control at 300 ppm: Hordeum vulgare, read-out: Foliar Application (Percent Control) Barley Powdery Mildew. Here is the method: Foliar Spray for the Control of Barley Powdery Mildew caused by Erysiyphe graminis f.sp. hordei
Technical grade material at defined ppm rates (w/v) in an acetone:water mixture (1:9) containing 0.1% Tween 20 (v/v) is sprayed to near run-off onto 7-days-old greenhouse-grown barley plants (var. “Robust”) at the cotyledon stage. Treated plants are inoculated within 24 hours by brushing mildew-infected plants over the treated plants. Inoculated plants are kept in the greenhouse for 6–8 days for disease development. Disease severity is examined and the % control is calculated as [% disease on untreated plants−% disease on treated plants]/% diseases in untreated plants. The results of these tests are shown in Table 2A below under the heading “Foliar Application—Barley Powdery Mildew”.

For experiment [2], the system named is Phytophthora infestans. Description: microbe, parasite or virus in culture. Format: cell-based.
Experiment [3] deals with Botrytis cinerea. Description: microbe, parasite or virus in culture. It is filed as cell-based.
A further experiment has as its system Pythium ultimum. Description: microbe, parasite or virus in culture. Format: cell-based.
The subject of experiment [4] is Botrytis cinerea. Description: Foliar spray for the control of geranium gray mold. It is filed as in vivo. The note with it: 300 ppm, greenhouse foliar spray, geranium plants. As for the experimental part: Foliar Spray for the Control of Geranium Gray Mold Caused by Botrytis cinerea
Technical grade material at defined ppm rates (w/v) in an acetone:water mixture (1:9) containing 0.1% Tween 20 (v/v) is sprayed to near run-off onto mature greenhouse-grown geranium plants (var. “Pinto White”) in the second leaf stage. Treated plants are inoculated within 24 hours with an aqueous suspension of approximately 100,000 conidia/ml of Botrytis cinerea grown on artificial medium. Inoculated plants are placed into a high humidity chamber for 5 days and then transferred to the greenhouse for one day for disease development. Disease severity is examined and the % control is calculated as [% disease on untreated plants−% disease on treated plants]/% disease on untreated plants. The results of these tests are shown in Table 2A below under the heading “Foliar Application—Geranium Gray Mold”.

The test system of a further experiment is Pyricularia oryzae. Description: whole plant or invertebrate. Format: in vivo. The note with it: for pest or weed control at 300 ppm: Pyricularia oryzae, foliar, read-out: Foliar Application (Percent Control) Rice Blast.
The test system of a further experiment is Barley Powdery Mildew. Description: Soil drench for the control of barley powdery mildew. It is filed as in vivo, Erysiyphe graminis f.sp. hordei. The note with it: 300 ppm, greenhouse soil drench. As for the experimental part:
as §1, §2

The test system of a further experiment is Uromyces appendiculatus. Description: Foliar spray for the control of bean rust. Format: in vivo. To be noted: 300 ppm, greenhouse foliar spray, Pinto bean plants. Here is the method:
Foliar Spray for the Control of Bean Rust Caused by Uromyces appendiculatus
Technical grade material at defined ppm rates (w/v) in an acetone:water mixture (1:9) containing 0.1% Tween 20 (v/v) is sprayed to near run-off onto 10-days-old greenhouse-grown Pinto bean plants (var. “Othello”) in the second leaf stage. Treated plants are inoculated within 24 hours with an aqueous suspension of approximately 20,000 uredospores of Uromyces appendiculatus harvested from rust-infected plants. Inoculated plants are placed into a high humidity chamber for 24 hr and then transferred to the greenhouse for two weeks for disease development. Disease severity is examined and the % control is calculated as [% disease on untreated plants−% disease on treated plants]/% disease on untreated plants. The results of these tests are shown in Table 2A below under the heading “Foliar Application—Bean Rust”.

A further experiment concerns Sclerotium rolfsii. It is filed as cell-based.
The subject of a further experiment is Fusarium nivale. Description: microbe, parasite or virus in culture. It is filed as cell-based.
The next experiment concerns Rhizoctonia solani. Description: microbe, parasite or virus in culture. Format: cell-based.
Experiment [5] has as its system Phytophthora infestans. Format: in vivo. The note with it: 300 ppm, greenhouse foliar spray, tomato plants.
The next experiment deals with Helminthosporium sativum. Description: Foliar spray for the control of barley blotch. It is filed as in vivo. To be noted: greenhouse foliar spray, barley plants; for pest or weed control at 300 ppm: Helminthosporium, read-out: Foliar Application (Percent Control) Barley Blotch. Here is the method:
Foliar Spray for the Control of Barley Blotch Caused by Helminthosporium sativum
Technical grade material at defined ppm rates (w/v) in an acetone:water mixture (1:9) containing 0.1% Tween 20 (v/v) is sprayed to near run-off onto 7-days-old greenhouse-grown barley plants (var. “Robust”) at the cotyledon stage. Treated plants are inoculated within 24 hours from spraying with an aqueous suspension of approximately 15,000 conidia/ml of Helminthosporium sativum grown on artificial medium. Inoculated plants are placed into a high humidity chamber for 24 hr and then transferred to the greenhouse for 4–5 days for disease development. Disease severity is examined and the % control is calculated as [% disease on untreated plants−% disease on treated plants]/% disease on untreated plants.
The results of these tests are shown in Table 2A below under the heading “Foliar Application—Barley Blotch”.

The mark [6] stands for this setting: Phytophthora infestans, 48 h, read-out: Percent Control Phytophthora infestants.
[7] abbreviates: Botrytis cinerea, 48 h, read-out: Percent Control Botrytis cinerea.
Where [8] appears, read: Globisporangium ultimum, 48 h, read-out: Percent Control Pythium ultimum.
The mark [9] stands for this setting: Microdochium nivale, 48 h, read-out: Percent Control Fusarium nivale.
Setting [10] is: Rhizoctonia solani, 48 h, read-out: Percent Control Rhizoctonia solani.

Take `CC(C)OC(=O)NN(C(=O)C(F)(F)F)c1ccc(Oc2cccc(Cl)c2)nc1` [Compound 6]: the “Drench Application (Percent Control) Cucumber Powdery Mildew” value in the experiment on Cucumber Powdery Mildew is 0%. The “Foliar Application (Percent Control) Barley Powdery Mildew” value in experiment [1] (300 ppm) was 0%. The “Percent Control Phytophthora infestants” value with Phytophthora infestans [2] (in vitro, rate 100 ppm, 48 hours) is given as 100%. The “Percent Control Botrytis cinerea” value in the experiment on Botrytis cinerea [3] was determined as 98%. Moreover, in the experiment with Pythium ultimum, the “Percent Control Pythium ultimum” value was 25%. In the experiment with Botrytis cinerea [4], the “Foliar Application (Percent Control) Geranium Gray Mold” value is reported as 82%. The “Foliar Application (Percent Control) Rice Blast” value in the experiment on Pyricularia oryzae (300 ppm, greenhouse foliar spray, rice plants) amounted to 92%. Further, in the experiment with Barley Powdery Mildew, the “Drench Application (Percent Control) Barley Powdery Mildew” value came to 0%. Moreover, the “Foliar Application (Percent Control) Bean Rust” value with Uromyces appendiculatus came out at 0%. Also, in the experiment on Sclerotium rolfsii, the “Percent Control Sclerotium rolfsii” value was determined as 98%. In the experiment with Fusarium nivale, the “Percent Control Fusarium nivale” value is given as 71%. Also, the “Percent Control Rhizoctonia solani” value with Rhizoctonia solani amounted to 100%. The “Foliar Application (Percent Control) Tomato Late Blight” value in the experiment on Phytophthora infestans [5] is 0%. Further, in the experiment with Helminthosporium sativum (300 ppm), the “Foliar Application (Percent Control) Barley Blotch” value worked out at 97%.

Regarding `CC(=O)NNc1ccc(Oc2cccc(C(F)(F)F)c2)c(F)c1` [Compound 7, N′-{3-fluoro-4-[3-(trifluoromethyl)phenoxy]phenyl}acetohydrazide], the pest or weed control at 300 ppm in experiment [1] worked out at 80%; in the experiment with Pyricularia oryzae it was 0%; in the experiment with Helminthosporium sativum, 80%. Besides, the inhibition of growth at 10 ppm came to 0% in the experiment with Phytophthora infestans [2] (setting [6]); 30% with Botrytis cinerea [3] (setting [7]); 8% with Pythium ultimum (setting [8]); 8% with Fusarium nivale (setting [9]); 80% with Rhizoctonia solani (setting [10]). Moreover, in the experiment with Botrytis cinerea [4], the “Foliar Application (Percent Control) Geranium Gray Mold” value came to 80%. Also, the “Foliar Application (Percent Control) Tomato Late Blight” value in the experiment with Phytophthora infestans [5] came to 0%.

For `CCC(=NNc1ccc(Oc2cccc(C(F)(F)F)c2)c(F)c1)[N+](=O)[O-]` [Compound 12, 1-{3-fluoro-4-[3-(trifluoromethyl)phenoxy]phenyl}-2-(1-nitropropylidene)-hydrazine], the figures for the pest or weed control at 300 ppm (in experiment [1]; in the experiment with Pyricularia oryzae; in the experiment on Helminthosporium sativum) were 80%, 0% and 0%, respectively. Moreover, the inhibition of growth at 10 ppm amounted to 0% with Phytophthora infestans [2] (setting [6]); 18% with Botrytis cinerea [3] (setting [7]); 3% with Pythium ultimum (setting [8]); 20% in the experiment on Fusarium nivale (setting [9]); 68% in the experiment with Rhizoctonia solani (setting [10]). Further, the “Foliar Application (Percent Control) Geranium Gray Mold” value in the experiment on Botrytis cinerea [4] turned out to be 0%. Further, in the experiment on Phytophthora infestans [5], the “Foliar Application (Percent Control) Tomato Late Blight” value is 0%.

Turning to `CC(C)OC(=O)N1CN(C)CN1c1ccc(Oc2cccc(C(F)(F)F)c2)c(F)c1` [Compound 10, 1-methylethyl 2-[3-fluoro-4-[3-(trifluoromethyl)phenoxy]phenyl]-4-methyl-1,2,4-triazolidine-1-carboxylate], the pest or weed control at 300 ppm in [1] is 100%; with Pyricularia oryzae it was 0%; in the experiment on Helminthosporium sativum, 90%. Also, the inhibition of growth at 100 ppm in the experiment on Phytophthora infestans [2] (setting [6]) stood at 0%; with Botrytis cinerea [3] (setting [7]) it was 0%; in the experiment on Pythium ultimum (setting [8]) it was 0%; in the experiment on Fusarium nivale (setting [9]), 0%; with Rhizoctonia solani (setting [10]), 79%. Moreover, the “Foliar Application (Percent Control) Geranium Gray Mold” value in the experiment on Botrytis cinerea [4] came to 0%.

Consider `CC(C)OC(=O)NN(C)c1ccc(Oc2cccc(C(F)(F)F)c2)cc1` [Compound 3, 1-methylethyl 2-methyl-2-[4-[3-(trifluoromethyl)phenoxy]phenyl]hydrazine carboxylate], for which the “Drench Application (Percent Control) Cucumber Powdery Mildew” value in the experiment on Cucumber Powdery Mildew worked out at 0%. The pest or weed control at 300 ppm is 62% in [1], 10% in the experiment on Pyricularia oryzae and 0% with Helminthosporium sativum. For the same molecule, the inhibition of growth at 50 ppm in the experiment on Phytophthora infestans [2] (setting [6]) came out at 79%; in the experiment with Botrytis cinerea [3] (setting [7]) it was 100%; with Pythium ultimum (setting [8]), 100%; in the experiment with Fusarium nivale (setting [9]) it was 82%; in the experiment on Rhizoctonia solani (setting [10]) it was 63%. In addition, the “Foliar Application (Percent Control) Geranium Gray Mold” value in the experiment with Botrytis cinerea [4] turned out to be 87%. Also, the “Drench Application (Percent Control) Barley Powdery Mildew” value in the experiment on Barley Powdery Mildew amounted to 0%. The “Foliar Application (Percent Control) Bean Rust” value in the experiment on Uromyces appendiculatus stood at 0%.

`CC(C)OC(=O)NN(C(=O)C(F)(F)F)c1ccc(Oc2cccc(C(F)(F)F)c2)cc1` [Compound 2, 1-methylethyl 2-(trifluoroacetyl)-2-[4-[3-(trifluoromethyl)phenoxy]phenyl]-hydrazine carboxylate]: the “Drench Application (Percent Control) Cucumber Powdery Mildew” value with Cucumber Powdery Mildew was determined as 0%. Besides, the pest or weed control at 300 ppm in [1] was determined as 25%; in the experiment on Pyricularia oryzae it was 15%; with Helminthosporium sativum it was 99%. The inhibition of growth at 100 ppm stood at 100% with Phytophthora infestans [2] (setting [6]); 90% in the experiment with Botrytis cinerea [3] (setting [7]); 100% in the experiment on Pythium ultimum (setting [8]); 20% in the experiment with Fusarium nivale (setting [9]); 82% in the experiment with Rhizoctonia solani (setting [10]). In the experiment on Barley Powdery Mildew, the “Drench Application (Percent Control) Barley Powdery Mildew” value was determined as 0%. Moreover, the “Foliar Application (Percent Control) Bean Rust” value in the experiment on Uromyces appendiculatus turned out to be 0%. In the experiment on Sclerotium rolfsii, the “Percent Control Sclerotium rolfsii” value came to 67%.

As for `CC(C)OC(=O)NNc1ccc(-c2cccc(C(F)(F)F)c2)c(F)c1` [Compound 8, isopropyl 2-[2-fluoro-3′-(trifluoromethyl)-1,1′-biphenyl-4-yl]hydrazine-carboxylate], the pest or weed control at 300 ppm amounted to 0% in experiment [1], 70% in the experiment on Pyricularia oryzae and 98% in the experiment on Helminthosporium sativum. The inhibition of growth at 10 ppm with Phytophthora infestans [2] (setting [6]) stood at 18%; with Botrytis cinerea [3] (setting [7]), 63%; with Pythium ultimum (setting [8]) it was 26%; with Fusarium nivale (setting [9]) it was 22%; in the experiment with Rhizoctonia solani (setting [10]) it was 58%. For the same molecule, the “Foliar Application (Percent Control) Geranium Gray Mold” value in the experiment on Botrytis cinerea [4] turned out to be 90%. In the experiment on Phytophthora infestans [5], the “Foliar Application (Percent Control) Tomato Late Blight” value is 0%.

Take `CC(C)OC(=O)N=Nc1ccc(Oc2cccc(C(F)(F)F)c2)cc1` [Compound 9, 1-methylethyl [4-[3-(trifluoromethyl)phenoxy]phenyl]diazene carboxylate]: in the experiment with Cucumber Powdery Mildew, the “Drench Application (Percent Control) Cucumber Powdery Mildew” value is on record as 0%. The pest or weed control at 300 ppm in experiment [1] turned out to be 15%; with Pyricularia oryzae, 98%; with Helminthosporium sativum, 97%. For the same molecule, the inhibition of growth at 100 ppm was 9% with Phytophthora infestans [2] (setting [6]); 77% with Botrytis cinerea [3] (setting [7]); 0% in the experiment on Pythium ultimum (setting [8]); 75% with Fusarium nivale (setting [9]); 22% in the experiment with Rhizoctonia solani (setting [10]). For the same molecule, the “Drench Application (Percent Control) Barley Powdery Mildew” value with Barley Powdery Mildew was determined as 25%. In the experiment on Uromyces appendiculatus, the “Foliar Application (Percent Control) Bean Rust” value was found to be 45%. Further, the “Percent Control Sclerotium rolfsii” value in the experiment with Sclerotium rolfsii was determined as 91%.
